System: NHBE cells
Assay: Biolog metabolic array: substrate use by NHBE cells with or without CA09 infection
Assay type: cell-based, human
Conditions: for Substrate use, 590 nm absorbance normalized to zero hour, 1 hr: Biolog PMM2, 1 hr; for Substrate use, 590 nm absorbance normalized to zero hour, 5 hr: Biolog PMM2, 5 hr; for Substrate use, 590 nm absorbance normalized to zero hour, 7 hr: Biolog PMM2, 7 hr
[1] = Control (uninfected) NHBE cells
[2] = Virus (CA09-infected, MOI 1) NHBE cells
[3] = Virus: CA09-infected NHBE cells, MOI 1, Biolog PMM2
[4] = Virus (CA09, MOI 1) infected NHBE cells

SMILES	590 nm absorbance normalized to zero hour (substrate use), 1 hr [1]	590 nm absorbance normalized to zero hour (substrate use), 2 hr [1]	590 nm absorbance normalized to zero hour (substrate use), 3 hr [1]	590 nm absorbance normalized to zero hour (substrate use), 4 hr [1]	590 nm absorbance normalized to zero hour (substrate use), 6 hr [1]	590 nm absorbance normalized to zero hour (substrate use), 8 hr [1]	590 nm absorbance normalized to zero hour (substrate use), 9 hr [1]	590 nm absorbance normalized to zero hour (substrate use), 10 hr [1]	590 nm absorbance normalized to zero hour (substrate use), 11 hr [1]	Substrate use, 590 nm absorbance normalized to zero hour, 1 hr [1]	Substrate use, 590 nm absorbance normalized to zero hour, 5 hr [1]	Substrate use, 590 nm absorbance normalized to zero hour, 7 hr [1]	590 nm absorbance normalized to zero hour (substrate use), 1 hr [2]	590 nm absorbance normalized to zero hour (substrate use), 2 hr [2]	590 nm absorbance normalized to zero hour (substrate use), 3 hr [2]	590 nm absorbance normalized to zero hour (substrate use), 4 hr [2]	590 nm absorbance normalized to zero hour (substrate use), 6 hr [2]	590 nm absorbance normalized to zero hour (substrate use), 8 hr [2]	590 nm absorbance normalized to zero hour (substrate use), 9 hr [2]	590 nm absorbance normalized to zero hour (substrate use), 10 hr [2]	also measured
CCC(=O)O [Propionic Acid]	1.39	1.55	1.71	1.74	0.17	1.84	1.99	1.15	1.23	1.39	1.91	1.75	1.23	0.70	0.83	0.93	1.15	1.18	1.32	1.11	590 nm absorbance normalized to zero hour (substrate use), 5 hr [2]: 1.08; 590 nm absorbance normalized to zero hour (substrate use), 7 hr [2]: 1.17; 590 nm absorbance normalized to zero hour (substrate use), 11 hr [2]: 1.26; 590 nm absorbance normalized to zero hour (substrate use), 1 hr [3]: 1.23; 590 nm absorbance normalized to zero hour (substrate use), 2 hr [3]: 0.70; 590 nm absorbance normalized to zero hour (substrate use), 3 hr [3]: 0.83; 590 nm absorbance normalized to zero hour (substrate use), 4 hr [3]: 0.93; 590 nm absorbance normalized to zero hour (substrate use), 5 hr [3]: 1.08; 590 nm absorbance normalized to zero hour (substrate use), 6 hr [3]: 1.15; 590 nm absorbance normalized to zero hour (substrate use), 7 hr [3]: 1.17; 590 nm absorbance normalized to zero hour (substrate use), 8 hr [3]: 1.18; 590 nm absorbance normalized to zero hour (substrate use), 9 hr [3]: 1.32; 590 nm absorbance normalized to zero hour (substrate use), 10 hr [3]: 1.11; 590 nm absorbance normalized to zero hour (substrate use), 11 hr [3]: 1.26
CO[C@H]1O[C@H](CO)[C@H](O)[C@H](O)[C@H]1O [a-Methyl-D-Galactoside]	1.13	0.68	0.80	0.84	1.20	1.15	1.29	1.42	1.06	1.13	1.01	1.15	2.91	1.88	1.16	1.24	1.51	1.67	1.83	1.89	590 nm absorbance normalized to zero hour (substrate use), 0 hr [1]: 1.00; Substrate use, 590 nm absorbance normalized to zero hour, 0 hr (Control (uninfected) NHBE cells, Biolog PMM2, 0 hr): 1.00; 590 nm absorbance normalized to zero hour (substrate use), 0 hr [2]: 1.00; 590 nm absorbance normalized to zero hour (substrate use), 5 hr [2]: 1.43; 590 nm absorbance normalized to zero hour (substrate use), 7 hr [2]: 1.59; 590 nm absorbance normalized to zero hour (substrate use), 11 hr [2]: 2.05; 590 nm absorbance normalized to zero hour (substrate use), 0 hr [3]: 1.00; 590 nm absorbance normalized to zero hour (substrate use), 1 hr [3]: 2.91; 590 nm absorbance normalized to zero hour (substrate use), 2 hr [3]: 1.88; 590 nm absorbance normalized to zero hour (substrate use), 3 hr [3]: 1.16; 590 nm absorbance normalized to zero hour (substrate use), 4 hr [3]: 1.24; 590 nm absorbance normalized to zero hour (substrate use), 5 hr [3]: 1.43; 590 nm absorbance normalized to zero hour (substrate use), 6 hr [3]: 1.51; 590 nm absorbance normalized to zero hour (substrate use), 7 hr [3]: 1.59; 590 nm absorbance normalized to zero hour (substrate use), 8 hr [3]: 1.67; 590 nm absorbance normalized to zero hour (substrate use), 9 hr [3]: 1.83; 590 nm absorbance normalized to zero hour (substrate use), 10 hr [3]: 1.89; 590 nm absorbance normalized to zero hour (substrate use), 11 hr [3]: 2.05
O=C[C@H](O)[C@@H](O)[C@@H](O)[C@H](O)CO [D-Galactose]	0.95	1.46	1.73	1.56	1.78	2.22	2.53	2.67	2.53	0.95	1.88	2.03	0.91	1.21	1.47	1.60	2.03	2.29	2.54	2.63	Substrate use, 590 nm absorbance normalized to zero hour, 1 hr [4]: 0.91; Substrate use, 590 nm absorbance normalized to zero hour, 5 hr [4]: 1.89; Substrate use, 590 nm absorbance normalized to zero hour, 7 hr [4]: 2.16; 590 nm absorbance normalized to zero hour (substrate use), 11 hr [2]: 2.86

From US11083725B2 (priority 2014, dated 2021)
